In PMC11391452, “Fruits from Rosa roxburghii: A Valuable Bioresource of Potent Radical Scavengers and Novel Ursane-Type Triterpenoids” (ACS Omega, 2024):
Entries after “also recorded” stand apart in the source; their conditions may differ.

Experiments:
COX-1 = molecular target: T1, COX-1 (Ovis aries, UniProt P05979); test: COX (ovine) colorimetric inhibitor screening assay, COX-1; format: biochemical; details: for COX-1 inhibition, in words: in comparison to acetaminophen, Figure 3 A
T1 construct: purchased Cayman 760110
T1 sequence (P05979 25-600): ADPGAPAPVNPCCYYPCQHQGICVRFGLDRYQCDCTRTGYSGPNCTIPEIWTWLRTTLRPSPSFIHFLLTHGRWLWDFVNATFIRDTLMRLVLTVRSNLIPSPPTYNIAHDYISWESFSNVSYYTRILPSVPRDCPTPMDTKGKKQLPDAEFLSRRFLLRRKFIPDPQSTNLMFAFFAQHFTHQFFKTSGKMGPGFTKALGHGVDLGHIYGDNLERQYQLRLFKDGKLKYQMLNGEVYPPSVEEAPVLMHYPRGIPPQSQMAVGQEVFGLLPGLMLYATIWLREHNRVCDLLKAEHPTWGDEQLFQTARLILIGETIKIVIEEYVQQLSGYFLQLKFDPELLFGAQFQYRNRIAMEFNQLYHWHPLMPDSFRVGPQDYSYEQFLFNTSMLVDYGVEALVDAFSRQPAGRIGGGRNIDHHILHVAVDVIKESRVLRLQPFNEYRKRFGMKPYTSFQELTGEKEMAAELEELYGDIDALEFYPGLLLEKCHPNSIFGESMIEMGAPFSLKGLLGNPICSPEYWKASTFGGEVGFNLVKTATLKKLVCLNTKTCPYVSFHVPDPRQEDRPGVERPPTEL
Method: (§1) Each compound was assayed in triplicate, and GraphPad Prism 8 software was used to calculate EC50 values. All statistical analyses were performed by Microsoft Excel.

COX-2 = molecular target: T2, COX-2 (Ovis aries, UniProt P79208); test: COX (ovine) colorimetric inhibitor screening assay, COX-2; format: biochemical; details: for COX-2 inhibition, in words: in comparison to acetaminophen, Figure 3 A
T2 construct: purchased Cayman 760110
T2 sequence (P79208 17-603): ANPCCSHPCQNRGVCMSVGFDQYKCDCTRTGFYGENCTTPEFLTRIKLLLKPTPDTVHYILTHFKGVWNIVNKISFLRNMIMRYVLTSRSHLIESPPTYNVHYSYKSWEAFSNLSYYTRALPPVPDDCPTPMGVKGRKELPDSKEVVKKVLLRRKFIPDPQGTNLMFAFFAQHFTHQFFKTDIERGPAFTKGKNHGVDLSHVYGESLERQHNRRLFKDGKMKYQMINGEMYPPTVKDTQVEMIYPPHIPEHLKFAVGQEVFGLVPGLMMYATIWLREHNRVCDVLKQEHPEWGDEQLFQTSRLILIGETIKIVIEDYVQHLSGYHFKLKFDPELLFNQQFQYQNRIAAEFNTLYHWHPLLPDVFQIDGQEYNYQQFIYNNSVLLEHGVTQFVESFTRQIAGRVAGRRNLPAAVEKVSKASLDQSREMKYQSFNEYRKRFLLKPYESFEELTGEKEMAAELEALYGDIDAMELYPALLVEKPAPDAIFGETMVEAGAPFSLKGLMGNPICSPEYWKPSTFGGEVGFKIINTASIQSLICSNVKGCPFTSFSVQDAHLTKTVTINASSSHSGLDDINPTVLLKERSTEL
Method: as §1

[1] = DPPH radical scavenging capacity assay; details: for EC50 / DPPH EC50: pure compounds, 30 min, 517 nm, ascorbic acid positive control; for free radical scavenging effect in comparison to ascorbic acid, in words: DPPH assay
Method: The DPPH radical scavenging capacity assay was performed according to a previously described method with slight modifications.[34] Briefly, the tested compounds or extracts were dissolved in a small volume of DMSO to generate a 10 mM or 100 mg mL^–1 (for the extracts) stock solution and diluted to generate the final testing solution with methanol. The 0.2 mM fresh DPPH methanol solution was prepared daily. The 90 μL of methanolic solution of DPPH was added to 60 μL of tested compound solution with different concentrations (or 60 μL of methanol as blank) in 96-well plates and allowed to react for 30 min at ambient temperature in the dark. The absorbance (OD) was measured at 517 nm on an Infinite M200 Pro (Tecan, Austria) microplate reader. The level of the DPPH• scavenging activity was calculated as [drawing 1] The EC50 values were calculated by using GraphPad Prism 8 software 4.6.

HepG2 cells = test: Hepatoprotective assay (APAP-exposed cells, cell viability); format: cell-based; details: tested concentration of 100 μM (method 50 μM), 20 mM APAP, Figure 3 B1
Method: HepG2 cells were seeded into 96-well tissue culture dishes at 5 × 10^3 cells/well and cultured overnight in DMEM medium supplemented with 10% FBS and 1% penicillin/streptomycin antibiotics at 37 °C in a humidified 5% CO2 incubator. The cells were then incubated with test compounds at 50 μM or extracts at 200 mg mL^–1 for 4 h before acetaminophen (APAP) exposure. After this pretreatment, the experimental group was treated with 20 mM APAP together with the compounds; the APAP-only group was treated with 20 mM neomycin and an equivalent volume of DMSO; and the control group was treated with an equivalent volume of DMSO without APAP or test compounds. After another 24 h of culture, the cell viability was then measured using the CellTiter 96 Aqueous One Solution Cell Proliferation Assay kit (Promega, USA).[12]

HaCaT cells = test: Anti-aging bioassay (UV-B irradiation model and viability assay, MTS); format: cell-based, Human; details: samples 25 μM, 24 h
Method: Human HaCaT cells were cultured routinely in DMEM (high glucose) supplemented with 10% fetal bovine serum and 1% penicillin–streptomycin solution in a humidified incubator at 37 °C and 5% CO2.[19] All cells were cultured in culture dishes, and the medium was changed every day. The cells were cultured when the cell density reached 80%. Briefly, the HaCaT cells were cultured for 24 h after plating at a density of 4 × 10^4 cells/100 μL in 96-well plates. Subsequently, cells were irradiated according to the grouping using a 20 W UV–B lamp (SiTing, Shanghai, CN) at a distance of 10 cm for 5 s. The irradiation dose was calculated to be approximately 0.80 J cm^–2. Cells were divided into the following groups: control, UV–B alone, and UV–B + samples (25 μM). After UV–B irradiation, HaCaT cells continued to culture for 24 h with the medium containing compounds to be measured. The effects of those compounds on cell protection were determined by the MTS assay (BestBio, Shanghai, CN). After incubation, cells in each well were treated with 20 μL MTS solution for 1 h. The absorbance at 490 nm was measured directly with a microplate reader (FlexStation3, Molecular Devices, CA, US). Cell viability was expressed as the ratio percentage of MTS after deducting background value, assuming that the absorbance of control cells with deducting background absorbance was 100%.

[2] = pure compounds, acetaminophen positive control

Row | EC50 (COX-1; [2]) [µM] | EC50 (COX-2; [2]) [µM] | DPPH EC50 [1] | SMILES | EC50 [1] [µM] | hepatoprotective effect (cell viability of HepG2 cells), in words (HepG2 cells) | COX-1 inhibition, in words (COX-1) | anti-aging effect (cell viability after UV-B irradiation), in words (HaCaT cells; Figure 3 B2) | anti-aging effect (cell viability after UV-B irradiation), in words (HaCaT cells; Figure 3 B2, listed as rosaroxine C) | COX-2 inhibition, in words (COX-2) | anti-aging effect (cell viability after UV-B irradiation), in words (HaCaT cells; Figure 3 B2, listed as 2-oxo-pomolic acid) | free radical scavenging effect in comparison to ascorbic acid, in words [1] | COX-1 EC50 (COX-1; [2]) | COX-2 EC50 (COX-2; [2])
1 | > 100 | 45 | – | CC(=O)Nc1ccc(O)cc1 [Acetaminphen, acetaminophen, reference compound] | – | – | – | – | – | – | – | – | – | –
2 | – | – | – | O=C1O[C@H]([C@@H](O)CO)C(O)=C1O [Ascorbic acid, ascorbic acid, reference compound] | 31.3 | – | – | – | – | – | – | – | – | –
3 | 40.3 | 37.4 | no activity | CC1(C)C(O)C(=O)CC2(C)C1CCC1(C)C2CC=C2C3C(C(=O)O)(CCC(C(=O)O)C3(C)O)CCC21C (centres unmarked) [Compound 3, rosaroxine C] | – | no protective effects | significant activities; also recorded: high inhibition rates | most active compounds | performed well | significant activities; also recorded: high inhibition rates | – | – | – | –
4 | 28.2 | 16.6 | no activity | C[C@@H]1CC[C@]2(C(=O)O)CC[C@]3(C)C(=CC[C@@H]4[C@@]5(C)CC(=O)[C@H](O)C(C)(C)[C@@H]5CC[C@]43C)[C@@H]2[C@]1(C)O [Compound 5, 2-oxo-pomolic acid] | – | no protective effects | significant activities; also recorded: high inhibition rates | most active compounds | – | significant activities; also recorded: high inhibition rates | performed well | – | – | –
5 | 29 | 53.3 | – | Oc1cc(O)c2c(c1)OC(c1ccc(O)c(O)c1)C(O)C2 (centres unmarked) [Compound 15, catechin] | 13.4 | no protective effects | high inhibition rates | – | – | – | – | powerful free radical scavenging effects | – | –
6 | – | – | – | O=C(O)c1ccc(O)c(O)c1 [Compound 22, protocatechuic acid] | 15.2 | no protective effects | – | most active compounds | – | – | – | powerful free radical scavenging effects | no activity | no activity

Row | SMILES | EC50 (COX-1; [2]) [µM] | EC50 (COX-2; [2]) [µM] | DPPH EC50 [1] | EC50 [1] [µM] | hepatoprotective effect (cell viability of HepG2 cells), in words (HepG2 cells) | COX-1 inhibition, in words (COX-1) | anti-aging effect (cell viability after UV-B irradiation), in words (HaCaT cells; Figure 3 B2) | anti-aging effect (cell viability after UV-B irradiation), in words (HaCaT cells; Figure 3 B2, listed as rosaroxine C) | COX-2 inhibition, in words (COX-2) | anti-aging effect (cell viability after UV-B irradiation), in words (HaCaT cells; Figure 3 B2, listed as 2-oxo-pomolic acid) | free radical scavenging effect in comparison to ascorbic acid, in words [1] | COX-1 EC50 (COX-1; [2]) | COX-2 EC50 (COX-2; [2])
7 | O=c1c(O)c(-c2ccc(O)c(O)c2)oc2cc(O)cc(O)c12 [Compound 16, quercetin] | 33.1 | 18.8 | – | 13.1 | no protective effects | high inhibition rates | – | – | high inhibition rates | – | powerful free radical scavenging effects | – | –
8 | O=C(O)c1cc(O)c(O)c(O)c1 [Compound 21, gallic acid] | 40 | 26.3 | – | 10 | – | high inhibition rates | – | – | high inhibition rates | – | powerful free radical scavenging effects | – | –
